In patent US20230355511A1, “BIO[…] AND SOLVENT COMPOSITIONS AND SYSTEMS FOR EXTENDED STORAGE AND […] OF ACTIVE PHARMACEUTICAL INGREDIENTS” (TOLMAR INTERNATIONAL LIMITED, priority 2020, published 2023):

Assay: In vitro release of TU, jar technique, 1% CTAB in TRIS buffer pH 8.7, 37° C.
Assay type: in vitro ADME
Conditions: FIG. 14, Table 11 formulations, 200 mg depot in 200 mL media
Experimental: The in vitro release profiles of solidifying liquid polymer formulations containing TU were conducted using jar technique method with 1% CTAB surfactant in TRIS buffer, pH 8.7 at 37° C. Depots were made by injecting 200 mg of formulation into 200 mL release media. Samples were then periodically collected and analyzed for released drug content. […] Non-formulated TU with a particle size of 67 μm (i.e., with no polymer) were also analyzed as a reference. Additionally, a 20% TU non-solidifying liquid polymer comprising 30% of a 14.2 kDa PDLCL liquid polymer with 25% NMP and 25% PEG 300 was prepared as a reference.

Question: With `CCCCCCCCCCC(=O)O[C@H]1CC[C@H]2[C@@H]3CCC4=CC(=O)CC[C@]4(C)[C@H]3CC[C@]12C` [non-formulated TU particles, testosterone undecanoate] as the compound, how does the “TU released within the first 7 days” value read?
Answer: approximately 75%
